Results on one compound are retold here after patent US20250114335A1, “METHODS AND COMPOSITIONS FOR THE TREATMENT OF EPILEPSY” (ARIZONA BOARD OF REGENTS ON BEHALF OF THE UNIVERSITY OF …, priority 2022, published 2025).

The subject of test [1] is hippocampal gene expression. Briefly: RNAseq and pathway analysis of hippocampal tissue, B6-D/+ adult males. It counts as in vivo, mouse. The procedure: Transcriptome studies: B6-D/D and wild-type (+/+) (n=3) were administered CND or VEH by s.c. injection for a period of 5 days starting at P15 and sacrificed for removal of hippocampal tissue (n=12) (FIG. 1B). Adult B6-D/+ male (n=3) mice were administered CND or VEH pellets as described above at the time of seizure onset and monitored for seizures for an extended period before sacrifice and removal of hippocampal tissue (100-160 d) (i.e., to match the age at which a VEH-treated male B6-D/+ experience ˜20 TCs) (FIG. 1B).
RNA sequencing: Hippocampal tissues from 21 mice were obtained according to a sampling strategy that compared (1) untreated (VEH only) and treated B6-D/D (n=3) with age-matched B6-+/+ controls (n=3 per group), (2) untreated (VEH only) male B6-D/+ mice that had experienced ˜20 TCs (n=3 per group) with age-matched B6-+/+ controls (n=3 per group), and (3) male B6-D/+ mice that were treated with CND for an extended period (n=3 per group). Brains of treated and untreated mice were dissected to yield tissue samples from the hippocampus. Bulk tissue was stored in RNALater (Qiagen, Valencia, CA) at −80 degrees centigrade. The technique for analyzing hippocampal gene expression was performed. Briefly, RNA was isolated from hippocampal tissue, and initial QC was performed. Libraries were constructed using a stranded mRNA-Seq Kit, and average fragment size was assessed. After concentrations were determined with an adaptor-specific qPCR kit, equimolar samples were pooled and clustered for sequencing on a Novaseq instrument (Illumina). Sample data were demultiplexed, trimmed, and quality filtered, and Fastq files were splice-aligned against the […] reference genome using STAR aligner version 2.5.2b. Gene expression counts were obtained using htseq-count version 0.6.1. Both splice alignment and counting were performed with Ensembl Annotation of the NCBI reference genome, and raw counts were analyzed with edgeR version 3.16.5.
Data and pathway analysis: Results of statistical summaries were generally expressed as mean±SD. Kaplan-Meier survival curves were used to test for differences in survival. […] A ‘perturbation signature’ approach was used to identify genome-wide differences in transcript abundance between transgenic mice (i.e., D/+, D/D, or +/+) that were untreated (VEH) or treated with CND. Differential expression analysis was performed. Briefly, the exactTest function was utilized in edgeR, and gene expression counts were first normalized using the calcNormFactors function. DEG analysis was performed on treatment versus control groups at two different ages using three biological replicates per group, which has been shown in power analyses to be sufficient to yield a true positive rate greater than 80% under the conditions used here. Multidimensional scaling (MDS) plots were constructed using the ‘plotMDS’ function in edgeR, which plots samples on a 2D scatterplot so that distances on the plot approximate the typical log 2 fold changes between samples. […] Rather than focusing on any single gene, bioinformatic analyses of our RNAseq data identified the most statistically significant biological pathways that were enriched given the set of DEGs in each experiment.

Test [2] has as its system B6-D/D (Scn8a-N1768D) juvenile mice. Kind of test: Survival and seizure frequency, B6-D/D juvenile mice. It counts as in vivo, mouse. Particulars: for Age at Death: daily s.c. injection. An excerpt:
Mouse strains: The C57BL/6J-N1768D congenic mouse (B6-D/+) was used for phenotyping, RNAseq, and BBB studies. In addition, a hybrid strain that was produced by backcross breeding to transfer the Scn8a-N1768D allele from the B6 to the C3H/HeJ strain background was used to further assess the effect of CND on survival and seizure frequency. After constructing an F1 by crossing male B6-D/+ heterozygotes to female C3H/HeJ, five rounds of backcrossing (N6) produced a […] and 98.5% C3H/HeJ-N1768D line (C3H-D/+). Sister-brother mating maintained the 98.5% C3H background. […] C3H-D/D mice have a delayed seizure onset (˜40-45 days) and an extended survival (65-70 days) with intermittent bouts of TCs (FIG. 1A).
Phenotyping: Female and male mice on both the B6 and C3H backgrounds were housed in sex-specific groups of 3-4 per cage in a pathogen-free mouse facility with a 14 h light/10 h dark cycle (lights turned on at 5 am). A 24/7 video monitoring system was utilized to collect seizure data, with infrared illumination to monitor behavior during the dark period. Seizures were counted as individual TCs. Adult mice were followed from the age of 6 weeks, a period of time well before seizure onset, in order to identify the day of seizure onset. A seizure bout was defined as a cluster of seizures on consecutive days, and a gap as a seizure-free period of 3 days or more.
Preparation of CND suspension for injections and oral dosing: Juvenile B6-D/D and adult B6-D/+ mice were given subcutaneous (s.c.) injections with either CND (2-4 mg/kg/day; doses that fall within the FDA-approved range for CND in both adults and children) or vehicle (VEH) (Sigma-Aldrich) (FIG. 1B). Oral dosing of adults was performed by thoroughly mixing 160 μl of suspension containing 1.28 mg of CND or VEH with 5 g of pure (organic) peanut butter in a petri dish. Mice were given 1 g pellet per mouse each day. Pellets were weighed each day to record the amount consumed, and 24/7 video was used to verify that each mouse was consuming the pellet. An average of 0.79 g (±0.36 g) was consumed by an adult mouse (˜20-25 g), corresponding to 9.1±4.2 mg/kg/day. No correlations were found for the amount of CND consumed and lifetime survival or number of TCs.
Survival and seizure frequency studies: B6-D/D mice were injected with CND (n=10) or VEH (n=10) at 15 days of age (P15) and followed to monitor TCs by 24/7 video recording until death (FIG. 1B). A separate set of 10 B6-D/D mice was administered a daily s.c. injection of 25 mg/kg/day phenytoin (PHT) suspension or VEH (US Pharmacopeia, Sigma-Aldrich). Oral administration of CND or VEH was initiated at the time of seizure onset (range P75-P85) for adult B6-D/+ females (N=10) and males (N=10) (FIG. 1B). Mice were monitored for seizures by 24/7 video recording until the time of death.

Setting [3] is: B6-D/D juveniles, Treated, listed as CDN.

For the compound `CCOc1nc2cccc(C(=O)O)c2n1Cc1ccc(-c2ccccc2-c2nnn[nH]2)cc1` [CND, candesartan], in test [1] (B6-D/+ Adult males), the “TREATED z-score, upstream regulator ERBB2” value is reported as −2.00; the “TREATED z-score, upstream regulator NUPR1” value is −2.00; the “TREATED z-score, upstream regulator PTGS2” value is reported as -2.8. In addition, in test [1] (CND-treated B6-D/+ adult males), the “number of canonical pathways predicted to be activated” value is given as 11, the “number of canonical pathways predicted to be deactivated” value is given as 3 and the “number of enriched canonical pathways” value stood at 14. Besides, in test [1] (CND-treated B6-D/+ males), the “number of DEGs” value stood at 86, the “number of down-regulated DEGs” value amounted to 10 and the “number of up-regulated DEGs” value was 76. Moreover, the “days surviving longer than untreated” value in test [2] (B6-D/D) is listed as 6.3 days. In addition, the “reduction in seizure frequency” value in test [2] (B6-D/D Juveniles) amounted to 45.8%. Besides, in test [2] (B6-D/D juveniles, Treated), the “#TCs” value was 119.0 TCs, the “#TCs/day (Life)” value is on record as 0.09 TCs/day, the “#TCs/day (PostTC)” value stood at 15.4±10.3 TCs/day and the “#gaps” value was 0.9. In test [2] (B6-D/D juveniles, Treated), the “Age at Onset” value is recorded as 21.4, the “Days with TCs” value turned out to be 7.2 days, the gap days was determined as 4.3 days and the mean gap length was 3.4. In addition, the “Age at Death” value in test [2] (B6-D/D juveniles, Treated) is 31.8 ± 2.7 days. Also, in test [2] (setting [3]), the “Age at Death” value is on record as 31.8 days and the “#TCs/day (PostTC)” value is recorded as 15.4 TCs/day. Also, the “increase in survival of juveniles” value in test [2] (B6-D/D juveniles, treated versus VEH) stood at 27%. In addition, in test [2] (B6-D/D juveniles, treated versus untreated (VEH only)), the “observed standard effect size, Kaplan-Meier survival” value worked out at 0.79.
